# Key:
# SARS-CoV-2 Delta variant [1] = test: Antiviral activity against SARS-CoV-2 Delta in Vero E6 cells (viral RNA copies, qRT-PCR); type: cell-based
# [2] = tested on: SARS-CoV-2 Omicron BA.5 variant; test: Antiviral activity against SARS-CoV-2 Omicron BA.5 in HEK293T-hACE2-TMPRSS2 cells (qRT-PCR); type: cell-based; conditions: Severe acute respiratory syndrome coronavirus 2, 24 h; read-out: EC50 mean ± sd, HEK293T-ACE2-T2, Omicron BA.5
# [3] = tested on: SARS-CoV-2 Omicron BA.5 variant; test: Antiviral activity against SARS-CoV-2 Omicron BA.5 in Vero E6 cells (qRT-PCR); type: cell-based
# [4] = tested on: SARS-CoV-2 Omicron BA.1 variant; test: Antiviral activity against SARS-CoV-2 Omicron BA.1 in HEK293T-hACE2-TMPRSS2 cells (qRT-PCR); type: cell-based; conditions: Severe acute respiratory syndrome coronavirus 2, 24 h; read-out: EC50 mean ± sd, HEK293T-ACE2-T2, Omicron BA.1
# SARS-CoV-2 Delta variant [5] = test: Antiviral activity against SARS-CoV-2 Delta in HEK293T-hACE2-TMPRSS2 cells (qRT-PCR); type: cell-based; conditions: Severe acute respiratory syndrome coronavirus 2, 24 h; read-out: EC50 mean ± sd, HEK293T-ACE2-T2, Delta
# [6] = tested on: SARS-CoV-2 Omicron BA.1 variant; test: Antiviral activity against SARS-CoV-2 Omicron BA.1 in Vero E6 cells (qRT-PCR); type: cell-based
# SARS-CoV-2 Delta variant [7] = type: in vivo, K18-hACE2 mice
# [8] = tested on: SARS-CoV-2 variants (Delta, Omicron BA.1, and Omicron BA.5), HCoV-OC43, and HCoV-229E; test: organism not typed; type: cell-based; conditions: read-out: half-maximal effective concentrations (EC50), range over HCoVs and cell lines
# [9] = Severe acute respiratory syndrome coronavirus 2, Vero C1008, 24 h, read-out: EC50 mean ± sd, Vero E6, Delta
# [10] = Severe acute respiratory syndrome coronavirus 2, Vero C1008, 24 h, read-out: EC50 mean ± sd, Vero E6, Omicron BA.5
# [11] = Severe acute respiratory syndrome coronavirus 2, Vero C1008, 24 h, read-out: EC50 mean ± sd, Vero E6, Omicron BA.1
Compound,EC50 (SARS-CoV-2 Delta variant [1]; [9]),EC50 [2],"EC50 [3, 10]",EC50 [4],EC50 (SARS-CoV-2 Delta variant [5]),"EC50 [6, 11]",expression of IL-6 and CCL2 in the lungs (SARS-CoV-2 Delta variant [7]; initial days (day 2)),"reduction of lung viral loads compared to the vehicle group (SARS-CoV-2 Delta variant [7]; oral BID, […], VV116 50 and 100 mpk, nirmatrelvir 100 mpk with ritonavir 50 mpk, Combo = VV116 50 + nirmatrelvir 100 + ritonavir 50 mpk)","EC50 (SARS-CoV-2 Delta variant [1]; Severe acute respiratory syndrome coronavirus 2, Vero C1008, Vero E6 cells, read-out: EC50 against the SARS-CoV-2 Delta variant in Vero E6 cells)","EC50 ([3]; Severe acute respiratory syndrome coronavirus 2, Vero C1008, Vero E6 cells, read-out: EC50 against Omicron BA.5)","EC50 ([6]; Severe acute respiratory syndrome coronavirus 2, Vero C1008, Vero E6 cells, read-out: EC50 against the SARS-CoV-2 Omicron BA.1 variant in Vero E6 cells)",EC50 [8]
N#C[C@@]1(c2ccc3c(N)ncnn23)O[C@H](CO)[C@@H](O)[C@H]1O [GS-441524],610 ± 79 nM,750 ± 64 nM,100 ± 11 nM,380 ± 40 nM,250 ± 140 nM,280 ± 11 nM,,,,,,
"CC(C)(C)[C@H](NC(=O)C(F)(F)F)C(=O)N1C[C@H]2[C@@H]([C@H]1C(=O)N[C@H](C#N)C[C@@H]1CCNC1=O)C2(C)C [Nirmatrelvir, nirmatrelvir]",,,,,,,reduction,1–2 log,,,,
"CCC(CC)COC(=O)[C@H](C)N[P@](=O)(OC[C@H]1O[C@@](C#N)(c2ccc3c(N)ncnn23)[C@H](O)[C@@H]1O)Oc1ccccc1 [RDV, remdesivir]",,,,,,,,,2200 nM,130 nM,540 nM,
[2H]c1cc([C@]2(C#N)O[C@H](CO)[C@@H](O)[C@H]2O)n2ncnc(N)c12 [X1],830 ± 71 nM,450 ± 100 nM,460 ± 4 nM,720 ± 24 nM,150 ± 37 nM,300 ± 27 nM,,,,,,60 to 1100 nM

# — PMC10514301 (Signal Transduction and Targeted Therapy, 2023)
